Results from ChEMBL document CHEMBL5500371, “Arginine and tryptophan-rich dendritic antimicrobial peptides that disrupt membranes for bacterial infection in vivo” (Eur J Med Chem, 2024).
In brackets after ≈: the same amount, converted by molar mass. Where a SMILES comes first, the peptide text is derived from it. Side-chain parts run from the residue outwards.

Columns and labels:
Staphylococcus aureus = assay: Antibacterial activity against Staphylococcus aureus ATCC 25923 assessed as inhibition of bacterial growth incubated for 20 hrs by broth microdilution method; format: functional
Bacillus subtilis = assay: Antibacterial activity against Bacillus subtilis ATCC 23857 assessed as inhibition of bacterial growth incubated for 20 hrs by broth microdilution method; format: functional
Acinetobacter baumannii = assay: Antibacterial activity against Acinetobacter baumannii ATCC 19606 assessed as inhibition of bacterial growth incubated for 20 hrs by broth microdilution method; format: functional
Klebsiella pneumoniae = assay: Antibacterial activity against Klebsiella pneumoniae ATCC 700603 assessed as inhibition of bacterial growth incubated for 20 hrs by broth microdilution method; format: functional
Escherichia coli = assay: Antibacterial activity against Escherichia coli ATCC 25922 assessed as inhibition of bacterial growth incubated for 20 hrs by broth microdilution method; format: functional
Pseudomonas aeruginosa = assay: Antibacterial activity against Pseudomonas aeruginosa ATCC 27853 assessed as inhibition of bacterial growth incubated for 20 hrs by broth microdilution method; format: functional
Erythrocyte = assay: Hemolytic activity in mouse erythrocytes assessed as 10% hemolysis incubated for 1 hr by absorbance based analysis; format: toxicity, cell-based
[1] = Cytotoxicity against HEK293T cells assessed as cell death measured after 1 hr by resazurin dye based analysis; format: toxicity, HEK-293T; details: human, HEK293T cells

Molecule | MIC (Staphylococcus aureus) [µM] | MIC (Bacillus subtilis) [µM] | MIC (Acinetobacter baumannii) [µM] | MIC (Klebsiella pneumoniae) [µM] | MIC (Escherichia coli) [µM] | MIC (Pseudomonas aeruginosa) [µM] | MHC10 (Erythrocyte) [µM] | CC50 at 1 h [1] [µM]
H-RRRRKWWW-NH2 | 8 | 8 | 128 | 64 | 64 | 16 | > 256 | > 128
N=C(N)NCCC[C@H](NC(=O)[C@H](CCCNC(=N)N)NC(=O)[C@H](CCCNC(=N)N)NC(=O)[C@H](CCCNC(=N)N)NC(=O)[C@H](CCCNC(=N)N)NC(=O)[C@H](CCCNC(=N)N)NC(=O)[C@H](CCCCNC(=O)[C@H](Cc1c[nH]c2ccccc12)NC(=O)[C@H](Cc1c[nH]c2ccccc12)NC(=O)[C@@H](N)Cc1c[nH]c2ccccc12)NC(=O)[C@H](Cc1c[nH]c2ccccc12)NC(=O)[C@H](Cc1c[nH]c2ccccc12)NC(=O)[C@@H](N)Cc1c[nH]c2ccccc12)C(N)=O (H-WWWK([Trp-Trp-Trp])RRRRRR-NH2) | 16 (≈ 35.2 µg/mL) | 8 (≈ 17.6 µg/mL) | 32 (≈ 70.4 µg/mL) | 32 (≈ 70.4 µg/mL) | 32 (≈ 70.4 µg/mL) | 16 (≈ 35.2 µg/mL) | 17.61 | 41.7
N=C(N)NCCC[C@H](N)C(=O)NCCCC[C@H](NC(=O)[C@@H](N)CCCNC(=N)N)C(=O)N[C@@H](Cc1c[nH]c2ccccc12)C(=O)N[C@@H](Cc1c[nH]c2ccccc12)C(=O)N[C@@H](Cc1c[nH]c2ccccc12)C(N)=O (H-RK(Arg)WWW-NH2) | 32 (≈ 32.5 µg/mL) | 32 (≈ 32.5 µg/mL) | > 128 | > 128 | > 128 | 32 (≈ 32.5 µg/mL) | > 256 | > 128
N=C(N)NCCC[C@H](NC(=O)[C@H](CCCNC(=N)N)NC(=O)[C@H](CCCNC(=N)N)NC(=O)[C@H](CCCCNC(=O)[C@H](Cc1c[nH]c2ccccc12)NC(=O)[C@@H](N)Cc1c[nH]c2ccccc12)NC(=O)[C@H](Cc1c[nH]c2ccccc12)NC(=O)[C@@H](N)Cc1c[nH]c2ccccc12)C(N)=O (H-WWK([Trp-Trp])RRR-NH2) | 16 (≈ 21.7 µg/mL) | 16 (≈ 21.7 µg/mL) | 128 (≈ 174 µg/mL) | > 128 | > 128 | > 128 | > 256 | > 128
N=C(N)NCCC[C@H](NC(=O)[C@@H](N)CCCNC(=N)N)C(=O)N[C@@H](CCCCN)C(=O)N[C@@H](Cc1c[nH]c2ccccc12)C(N)=O (H-RRKW-NH2) | > 128 | > 128 | > 128 | > 128 | > 128 | > 128 | > 256 | > 128
N=C(N)NCCC[C@H](NC(=O)[C@H](CCCNC(=N)N)NC(=O)[C@@H](N)CCCNC(=N)N)C(=O)NCCCC[C@H](NC(=O)[C@H](CCCNC(=N)N)NC(=O)[C@H](CCCNC(=N)N)NC(=O)[C@@H](N)CCCNC(=N)N)C(=O)N[C@@H](Cc1c[nH]c2ccccc12)C(=O)N[C@@H](Cc1c[nH]c2ccccc12)C(=O)N[C@@H](Cc1c[nH]c2ccccc12)C(=O)N[C@@H](Cc1c[nH]c2ccccc12)C(=O)N[C@@H](Cc1c[nH]c2ccccc12)C(=O)N[C@@H](Cc1c[nH]c2ccccc12)C(=O)N[C@@H](Cc1c[nH]c2ccccc12)C(N)=O (H-RRRK([Arg-Arg-Arg])WWWWWWW-NH2) | 32 (≈ 76.3 µg/mL) | 16 (≈ 38.2 µg/mL) | 16 (≈ 38.2 µg/mL) | 64 (≈ 153 µg/mL) | 64 (≈ 153 µg/mL) | 16 (≈ 38.2 µg/mL) | 12.98 | 53.5
H-WWWWWWKRRRRR-NH2 | 8 | 8 | 16 | 32 | 16 | 16 | 29.45 | 44.9
N=C(N)NCCC[C@H](NC(=O)[C@H](CCCNC(=N)N)NC(=O)[C@H](CCCNC(=N)N)NC(=O)[C@H](CCCCNC(=O)[C@@H](N)Cc1c[nH]c2ccccc12)NC(=O)[C@@H](N)Cc1c[nH]c2ccccc12)C(N)=O (H-WK(Trp)RRR-NH2) | > 128 | > 128 | > 128 | > 128 | > 128 | > 128 | > 256 | > 128
N=C(N)NCCC[C@H](N)C(=O)NCCCC[C@H](NC(=O)[C@@H](N)CCCNC(=N)N)C(=O)N[C@@H](Cc1c[nH]c2ccccc12)C(N)=O (H-Arg-Lys(Arg)-Trp-NH2) | > 128 | > 128 | > 128 | > 128 | > 128 | > 128 | > 256 | > 128
H-RRRRRRKWWWWWWW-NH2 | 8 | 8 | 32 | 32 | 16 | 32 | 19.48 | 101
H-RRKWW-NH2 | > 128 | 64 | > 128 | > 128 | > 128 | > 128 | > 256 | > 128
N=C(N)NCCC[C@H](NC(=O)[C@@H](N)CCCNC(=N)N)C(=O)NCCCC[C@H](NC(=O)[C@H](CCCNC(=N)N)NC(=O)[C@@H](N)CCCNC(=N)N)C(=O)N[C@@H](Cc1c[nH]c2ccccc12)C(=O)N[C@@H](Cc1c[nH]c2ccccc12)C(=O)N[C@@H](Cc1c[nH]c2ccccc12)C(N)=O (H-RRK([Arg-Arg])WWW-NH2) | 16 (≈ 21.3 µg/mL) | 4 (≈ 5.31 µg/mL) | > 128 | 64 (≈ 85 µg/mL) | 16 (≈ 21.3 µg/mL) | 16 (≈ 21.3 µg/mL) | > 256 | > 128
N=C(N)NCCC[C@H](NC(=O)[C@@H](N)CCCNC(=N)N)C(=O)NCCCC[C@H](NC(=O)[C@H](CCCNC(=N)N)NC(=O)[C@@H](N)CCCNC(=N)N)C(=O)N[C@@H](Cc1c[nH]c2ccccc12)C(=O)N[C@@H](Cc1c[nH]c2ccccc12)C(=O)N[C@@H](Cc1c[nH]c2ccccc12)C(=O)N[C@@H](Cc1c[nH]c2ccccc12)C(=O)N[C@@H](Cc1c[nH]c2ccccc12)C(N)=O (H-RRK([Arg-Arg])WWWWW-NH2) | 16 (≈ 27.2 µg/mL) | 8 (≈ 13.6 µg/mL) | 32 (≈ 54.4 µg/mL) | 16 (≈ 27.2 µg/mL) | 16 (≈ 27.2 µg/mL) | 16 (≈ 27.2 µg/mL) | 51.32 | 58.8
H-WWKRRR-NH2 | > 128 | 64 | > 128 | > 128 | > 128 | > 128 | > 256 | > 128
H-WWWWWWKRRRRRR-NH2 | 8 | 8 | 32 | 16 | 16 | 32 | 34.63 | 45
H-WWWWKRRRRR-NH2 | 8 | 8 | 32 | 32 | 16 | 16 | > 256 | 116
CN[C@H](CC(C)C)C(=O)N[C@H]1C(=O)N[C@@H](CC(N)=O)C(=O)N[C@H]2C(=O)N[C@H]3C(=O)N[C@H](C(=O)N[C@H](C(=O)O)c4cc(O)cc(O)c4-c4cc3ccc4O)[C@H](O)c3ccc(c(Cl)c3)Oc3cc2cc(c3O[C@@H]2O[C@H](CO)[C@@H](O)[C@H](O)[C@H]2O[C@H]2C[C@](C)(N)[C@H](O)[C@H](C)O2)Oc2ccc(cc2Cl)[C@H]1O [VANCOMYCIN] | < 1 | < 1 | 64 (≈ 92.8 µg/mL) | 128 (≈ 186 µg/mL) | 64 (≈ 92.8 µg/mL) | > 128 |  | 
H-RRRRRRKWWWWW-NH2 | 16 | 8 | 32 | 32 | 16 | 32 | 42.8 | 55.1
N=C(N)NCCC[C@H](NC(=O)[C@H](CCCNC(=N)N)NC(=O)[C@H](CCCNC(=N)N)NC(=O)[C@H](CCCNC(=N)N)NC(=O)[C@H](CCCNC(=N)N)NC(=O)[C@H](CCCCNC(=O)[C@H](Cc1c[nH]c2ccccc12)NC(=O)[C@H](Cc1c[nH]c2ccccc12)NC(=O)[C@@H](N)Cc1c[nH]c2ccccc12)NC(=O)[C@H](Cc1c[nH]c2ccccc12)NC(=O)[C@H](Cc1c[nH]c2ccccc12)NC(=O)[C@@H](N)Cc1c[nH]c2ccccc12)C(N)=O (H-WWWK([Trp-Trp-Trp])RRRRR-NH2) | 8 (≈ 16.3 µg/mL) | 8 (≈ 16.3 µg/mL) | 32 (≈ 65.4 µg/mL) | 32 (≈ 65.4 µg/mL) | 16 (≈ 32.7 µg/mL) | 32 (≈ 65.4 µg/mL) | 22.73 | 48.2
H-WWWWWWKRRRRRRR-NH2 | 32 | 16 | 32 | 32 | 32 | 32 | 27.86 | 46.6
H-WWWWKRRR-NH2 | 8 | 8 | 32 | 64 | 32 | 16 | > 256 | > 128
H-RRKWWW-NH2 | 64 | 16 | 128 | > 128 | 64 | 128 | > 256 | > 128
N=C(N)NCCC[C@H](NC(=O)[C@H](CCCNC(=N)N)NC(=O)[C@H](CCCNC(=N)N)NC(=O)[C@H](CCCNC(=N)N)NC(=O)[C@H](CCCNC(=N)N)NC(=O)[C@H](CCCCNC(=O)[C@H](Cc1c[nH]c2ccccc12)NC(=O)[C@@H](N)Cc1c[nH]c2ccccc12)NC(=O)[C@H](Cc1c[nH]c2ccccc12)NC(=O)[C@@H](N)Cc1c[nH]c2ccccc12)C(N)=O (H-WWK([Trp-Trp])RRRRR-NH2) | 8 (≈ 13.4 µg/mL) | 8 (≈ 13.4 µg/mL) | 32 (≈ 53.5 µg/mL) | 64 (≈ 107 µg/mL) | 8 (≈ 13.4 µg/mL) | 32 (≈ 53.5 µg/mL) | > 256 | > 128
